Reference: US11040031B2, “Pyrazole derivatives as MALT1 inhibitors” (Janssen Pharmaceutica NV, priority 2018, dated 2021)
Where two headings read alike, the source gives them in different places.

Key:
[1] = test system: Secretion of IL10 by TMD8 ABC-DLBCL cells; experiment: Human IL10 Mesoscale assay (TMD-8); assay type: cell-based; conditions: read-out: Human IL10 Mesoscale assay (TMD-8)
Protocol: (§1) NFKB signaling regulates the secretion of multiple cytokines, including IL6 and IL10. Secretion of the cytokines IL6 and IL10 by TMD8 or OCI-LY3 ABC-DLBCL cells was measured using a mesoscale assay.
(§2) Cell passage number should not exceed 30. Cells should be kept between 0.5-2.5 million cells per mL during culturing and cells should be supplemented every 2-3 days with fresh 50 µM beta-mercaptoenthanol. No beta-mercaptoethanol was used during the mesoscale assay.
(§3) DMSO control wells were used to determine the maximum signal (High Control (HC)). […] Compounds and cells were incubated for 24 h at 37° C. and 5% CO2 (assay volume is 150 μL). After 24 h of incubation 50 μL of the supernatant was transferred to a MSD plate (V-Plex Proinflammation Panel 1 (human) kit, Mesoscale (MSD)) and incubated for 2 h with vigorous shaking (600 rpm) at room temperature. Following incubation, plates were washed 3× with PBS+0.05% Tween-20 and 25 μL detection antibody solution (IL6 & IL10 antibodies in diluent 3 (MSD)) was added per well followed by 2 h of incubation with vigorous shaking (600 rpm) at room temperature. After 3× washes with PBS+0.05% Tween-20, plates were incubated with 150 μL 2× Read Buffer T and read on SECTOR imager.

[2] = biological target: T1, full-length MALT1 protein (Strep-MALT1(1-824)-His) (Homo sapiens, UniProt Q9UDY8); experiment: biochemical;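 note: fluorogenic LRSR-AMC substrate cleavage by MALT1, 50 min compound preincubation then 4 h reaction at RT, 11-point dilution from 30 µM, scaled between enzyme-free and untreated enzyme controls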
T1 sequence (Q9UDY8 1-824): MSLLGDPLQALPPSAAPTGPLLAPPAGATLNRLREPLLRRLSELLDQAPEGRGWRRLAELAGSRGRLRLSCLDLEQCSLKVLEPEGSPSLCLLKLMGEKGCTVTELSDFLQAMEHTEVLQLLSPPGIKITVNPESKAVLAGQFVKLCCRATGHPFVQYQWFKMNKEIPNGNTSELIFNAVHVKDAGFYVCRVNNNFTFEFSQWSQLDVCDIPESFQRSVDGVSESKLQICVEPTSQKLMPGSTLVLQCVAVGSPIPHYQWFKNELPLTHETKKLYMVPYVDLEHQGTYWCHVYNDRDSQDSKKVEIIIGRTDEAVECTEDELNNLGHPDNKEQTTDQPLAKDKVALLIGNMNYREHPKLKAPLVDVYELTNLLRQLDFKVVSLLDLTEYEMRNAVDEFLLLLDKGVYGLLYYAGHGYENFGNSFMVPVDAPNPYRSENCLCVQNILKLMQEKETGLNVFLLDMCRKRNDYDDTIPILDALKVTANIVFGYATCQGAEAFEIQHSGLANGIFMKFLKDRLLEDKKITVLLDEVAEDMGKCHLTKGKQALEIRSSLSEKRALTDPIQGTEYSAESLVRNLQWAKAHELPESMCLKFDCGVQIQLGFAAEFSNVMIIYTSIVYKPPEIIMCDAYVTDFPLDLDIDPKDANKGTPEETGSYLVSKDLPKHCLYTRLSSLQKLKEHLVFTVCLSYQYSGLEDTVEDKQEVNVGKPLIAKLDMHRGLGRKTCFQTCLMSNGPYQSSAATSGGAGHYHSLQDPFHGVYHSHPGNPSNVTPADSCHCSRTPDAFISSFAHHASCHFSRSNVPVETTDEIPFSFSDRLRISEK

[3] = test system: Secretion of IL6 by TMD8 ABC-DLBCL cells; experiment: Human IL6 Mesoscale assay (TMD-8); assay type: cell-based; conditions: read-out: Human IL6 Mesoscale assay (TMD-8)
Protocol: as §1, §2, §3

[4] = test system: OCI-Ly3 ABC-DLBCL cell line; experiment: 4-day proliferation assay OCI-Ly3; assay type: cell-based; conditions: Homo sapiens, read-out: Anti-proliferation: OCI-LY-3 IC50
Outline: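 10,000 OCI-Ly3 cells per well cultured 4 days at 37° C., 5% CO2 without beta-mercaptoethanol, at densities giving linear growth. Viability read by CellTiterGLO luminescence after 10 min at room temperature.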

[5] = test system: Secretion of IL10 by OCI-LY3 ABC-DLBCL cells; experiment: Human IL10 Mesoscale assay (OCI-LY3); assay type: cell-based; conditions: OCI-LY3 cells, 24 h incubation, supernatant, MSD V-Plex, read-out: Human IL10 Mesoscale assay (OCI-LY3)
Outline: (§4)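 TMD8 or OCI-LY3 ABC-DLBCL cells incubated with compound 24 h at 37° C without beta-mercaptoethanol. Secreted IL6 and IL10 in supernatant quantified by MSD electrochemiluminescence immunoassay; DMSO wells define maximum signal.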

[6] = test system: Secretion of IL6 by OCI-LY3 ABC-DLBCL cells; experiment: Human IL6 Mesoscale assay (OCI-LY3); assay type: cell-based; conditions: OCI-LY3 cells, 24 h incubation, supernatant, MSD V-Plex, read-out: Human IL6 Mesoscale assay (OCI-LY3)
Outline: as §4

[7] = TMD8 cells, 24 h incubation, supernatant, MSD V-Plex
[8] = 96 h, 10,000 OCI-Ly3 cells per well, 4 days, CellTiterGLO

| Compound | IC50 [1, 7] | IC50 [2] | IC50 [3, 7] | IC50 [4, 8] | IC50 [5] | IC50 [6] | IC50 ([1]; TMD8, 24 h) | IC50 ([3]; TMD8, 24 h) | IC50 ([4]; OCI-Ly3, 96 h) |
| --- | --- | --- | --- | --- | --- | --- | --- | --- | --- |
| N#Cc1cccc(-n2ncc(C(=O)Nc3cnc(-n4nccn4)c(Cl)c3)c2C(F)(F)F)c1 [Cpd 21, N-(5-chloro-6-(2H-1,2,3-triazol-2-yl)pyridin-3-yl)-1-(3-cyanophenyl)-5-(trifluoromethyl)-1H-pyrazole-4-carboxamide] | 1260 nM | 1120 nM | 912 nM | 741 nM |  |  |  |  |  |
| O=C(Nc1cnc(-n2nccn2)c(Cl)c1)c1cnn(-c2ccccc2)c1C(F)(F)F [Cpd 5, N-(5-Chloro-6-(2H-1,2,3-triazol-2-yl)pyridin-3-yl)-1-phenyl-5-(trifluoromethyl)-1H-pyrazole-4-carboxamide] | 741 nM | 295 nM | 263 nM | 380 nM |  |  |  |  |  |
| Cc1ccc(-n2ncc(C(=O)Nc3cnc(-n4nccn4)c(Cl)c3)c2C(F)(F)F)cc1 [Cpd 27, N-(5-chloro-6-(2H-1,2,3-triazol-2-yl)pyridin-3-yl)-1-(p-tolyl)-5-(trifluoromethyl)-1H-pyrazole-4-carboxamide] | 1380 nM | 851 nM | 1200 nM | 3890 nM |  |  |  |  |  |
| COc1nccc(-n2ncc(C(=O)Nc3cnc(-n4nccn4)c(C#N)c3)c2C(F)(F)F)c1Cl [Cpd 32, 1-(3-Chloro-2-methoxypyridin-4-yl)-N-(5-cyano-6-(2H-1,2,3-triazol-2-yl)pyridin-3-yl)-5-(trifluoromethyl)-1H-pyrazole-4-carboxamide] | 646 nM | 589 nM | 1120 nM | 575 nM |  |  |  |  |  |
| Cc1nccc(-n2ncc(C(=O)Nc3cnc(-n4nccn4)c(Cl)c3)c2C(F)(F)F)c1Cl [Cpd 69, 1-(3-chloro-2-methylpyridin-4-yl)-N-(5-chloro-6-(2H-1,2,3-triazol-2-yl)pyridin-3-yl)-5-(trifluoromethyl)-1H-pyrazole-4-carboxamide] | 3240 nM | 257 nM | 2290 nM | 2090 nM |  |  |  |  |  |
| Cc1cc(-n2ncc(C(=O)Nc3cnc(-n4nccn4)c(Cl)c3)c2C(F)(F)F)c(Cl)cn1 [Cpd 68, 1-(5-chloro-2-methylpyridin-4-yl)-N-(5-chloro-6-(2H-1,2,3-triazol-2-yl)pyridin-3-yl)-5-(trifluoromethyl)-1H-pyrazole-4-carboxamide] |  | 427 nM |  |  |  |  | 7080 nM | 5500 nM | 7080 nM |
| Cc1ccc(-n2ncc(C(=O)Nc3cnc(-n4nccn4)c(Cl)c3)c2C(F)(F)F)nc1 [Cpd 23, N-(5-chloro-6-(2H-1,2,3-triazol-2-yl)pyridin-3-yl)-1-(5-methylpyridin-2-yl)-5-(trifluoromethyl)-1H-pyrazole-4-carboxamide] |  | 933 nM |  |  |  |  | 1070 nM | 891 nM | 479 nM |

More lines, in order of falling IC50 [2], values ahead:

| IC50 [1, 7] | IC50 [2] | IC50 [3, 7] | IC50 [4, 8] | IC50 [5] | IC50 [6] | IC50 ([1]; TMD8, 24 h) | IC50 ([3]; TMD8, 24 h) | IC50 ([4]; OCI-Ly3, 96 h) | Compound |
| --- | --- | --- | --- | --- | --- | --- | --- | --- | --- |
| 2040 nM | 251 nM | 2290 nM | 2880 nM |  |  |  |  |  | N#Cc1cc(NC(=O)c2cnn(-c3ncc(F)cc3Cl)c2C(F)(F)F)cnc1-n1nccn1 [Cpd 106, 1-(3-chloro-5-fluoropyridin-2-yl)-N-(5-cyano-6-(2H-1,2,3-triazol-2-yl)pyridin-3-yl)-5-(trifluoromethyl)-1H-pyrazole-4-carboxamide] |
|  | 204 nM |  |  |  |  | 513 nM | 1620 nM | 3630 nM | N#Cc1cc(NC(=O)c2cnn(-c3c(Cl)cncc3Cl)c2C(F)(F)F)cnc1-n1nccn1 [Cpd 48, N-(5-cyano-6-(2H-1,2,3-triazol-2-yl)pyridin-3-yl)-1-(3,5-dichloropyridin-4-yl)-5-(trifluoromethyl)-1H-pyrazole-4-carboxamide] |
|  | 204 nM |  |  |  |  | 3550 nM | 4470 nM | 6610 nM | Cc1cc(-n2ncc(C(=O)Nc3cnc(-n4nccn4)c(C#N)c3)c2C(F)(F)F)c(Cl)cn1 [Cpd 70, 1-(5-chloro-2-methylpyridin-4-yl)-N-(5-cyano-6-(2H-1,2,3-triazol-2-yl)pyridin-3-yl)-5-(trifluoromethyl)-1H-pyrazole-4-carboxamide] |
| 132 nM | 151 nM | 135 nM | 1230 nM |  |  |  |  |  | Cc1ccccc1-n1ncc(C(=O)Nc2cnc(-n3nccn3)c(Cl)c2)c1C(F)(F)F [Cpd 29, N-(5-chloro-6-(2H-1,2,3-triazol-2-yl)pyridin-3-yl)-1-(o-tolyl)-5-(trifluoromethyl)-1H-pyrazole-4-carboxamide] |
| 282 nM | 148 nM | 316 nM | 2140 nM |  |  |  |  |  | COc1ncccc1-n1ncc(C(=O)Nc2cnc(-n3nccn3)c(Cl)c2)c1C(F)(F)F [Cpd 14, N-(5-Chloro-6-(2H-1,2,3-triazol-2-yl)pyridin-3-yl)-1-(2-methoxypyridin-3-yl)-5-(trifluoromethyl)-1H-pyrazole-4-carboxamide] |
|  | 145 nM |  |  |  |  | 631 nM | 407 nM | 457 nM | N#Cc1cc(NC(=O)c2cnn(-c3ncc(F)cc3Br)c2C(F)(F)F)cnc1-n1nccn1 [Cpd 34, 1-(3-Bromo-5-fluoropyridin-2-yl)-N-(5-cyano-6-(2H-1,2,3-triazol-2-yl)pyridin-3-yl)-5-(trifluoromethyl)-1H-pyrazole-4-carboxamide] |
| 65 nM | 132 nM | 148 nM | 741 nM |  |  |  |  |  | Cc1cc(Cl)ccc1-n1ncc(C(=O)Nc2cnc(-n3nccn3)c(Cl)c2)c1C(F)(F)F [Cpd 2, 1-(4-Chloro-2-methylphenyl)-N-(5-chloro-6-(2H-1,2,3-triazol-2-yl)pyridin-3-yl)-5-(trifluoromethyl)-1H-pyrazole-4-carboxamide] |
| 85 nM | 117 nM | 79 nM | 1350 nM | 58 nM | 83 nM |  |  |  | Cc1cc(F)ccc1-n1ncc(C(=O)Nc2cnc(-n3nccn3)c(Cl)c2)c1C(F)(F)F [Cpd 1, N-(5-Chloro-6-(2H-1,2,3-triazol-2-yl)pyridin-3-yl)-1-(4-fluoro-2-methylphenyl)-5-(trifluoromethyl)-1H-pyrazole-4-carboxamide] |
| 339 nM | 87 nM | 162 nM | 4790 nM |  |  |  |  |  | N#Cc1cc(NC(=O)c2cnn(-c3ccncc3Cl)c2C(F)(F)F)cnc1-n1nccn1 [Cpd 45, 1-(3-chloropyridin-4-yl)-N-(5-cyano-6-(2H-1,2,3-triazol-2-yl)pyridin-3-yl)-5-(trifluoromethyl)-1H-pyrazole-4-carboxamide] |
| 209 nM | 74 nM | 89 nM | 1860 nM | 145 nM | 166 nM |  |  |  | N#Cc1cc(NC(=O)c2cnn(-c3ccnc4c3OCO4)c2C(F)(F)F)cnc1-n1nccn1 [Cpd 53, 1-([1,3]dioxolo[4,5-b]pyridin-7-yl)-N-(5-cyano-6-(2H-1,2,3-triazol-2-yl)pyridin-3-yl)-5-(trifluoromethyl)-1H-pyrazole-4-carboxamide] |
